Laboratory results: US20150031655A1, “COMBINATION OF LIVER X RECEPTOR MODULATOR AND ESTROGEN RECEPTOR MODULATOR FOR THE TREATMENT OF AGE-RELATED DISEASES” (UNIVERSITY OF NORTH DAKOTA, priority 2011, published 2015)

What was measured:
ERβ [1] = target: T1, ERβ (Homo sapiens, UniProt Q92731); assay: Western blot of ERβ levels in the nucleus (nuclear translocation), SH-SY5Y cells; format: cell-based; details: 24 h, treatment alone vs control
T1 construct: endogenous in cells; host or cells: SH-SY5Y human neuroblastoma cells
T1 sequence (Q92731 whole entry): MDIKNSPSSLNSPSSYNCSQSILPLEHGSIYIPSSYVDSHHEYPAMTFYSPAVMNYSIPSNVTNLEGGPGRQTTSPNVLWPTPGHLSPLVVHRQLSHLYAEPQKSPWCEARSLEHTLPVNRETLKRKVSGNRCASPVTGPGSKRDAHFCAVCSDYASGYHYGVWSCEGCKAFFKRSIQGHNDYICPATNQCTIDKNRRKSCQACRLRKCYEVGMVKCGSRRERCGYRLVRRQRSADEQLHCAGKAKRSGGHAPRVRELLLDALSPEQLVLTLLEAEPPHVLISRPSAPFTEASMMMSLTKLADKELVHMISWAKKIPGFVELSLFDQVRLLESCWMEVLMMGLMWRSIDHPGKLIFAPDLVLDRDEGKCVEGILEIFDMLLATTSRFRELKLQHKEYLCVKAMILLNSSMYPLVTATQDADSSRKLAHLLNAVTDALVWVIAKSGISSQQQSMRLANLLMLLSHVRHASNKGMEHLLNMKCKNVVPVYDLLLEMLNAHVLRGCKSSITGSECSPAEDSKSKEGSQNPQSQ
Description: (§1) Human neuroblastoma SH-SY5Y cells were grown in DMEM/F12 medium containing 10% fetal bovine serum (FBS) and 1% antibiotic/antimycotic mix. Cells were maintained at 37° C. in a saturated humidity atmosphere containing 95% air and 5% CO2.
Treated SH-SY5Y cells were washed with PBS and trypsinized to collect the cells and centrifuged at 5000 g. The pellet was washed again with PBS and homogenized in NE-PER tissue protein extraction reagent (Thermo Scientific, Rockford, Ill.) supplemented with protease and phosphatase inhibitors. Protein concentrations from the cytosolic and nuclear homogenates were determined with BCA protein assay.
Proteins (10 μg) were separated on SDS-PAGE gels, transferred to a polyvinylidene difluoride membrane (BioRad, Hercules, Calif.), and incubated with the following monoclonal antibodies: anti-TH mouse antibody (1:1000; Sigma Aldrich, Saint Louis, Mo.), anti-α-synuclein mouse antibody (1:500; Chemicon, Temecula, Calif.), anti-ERα rabbit antibody (1:500; Abcam, Cambridge, Mass.), anti-ERβ rabbit antibody (1:200; Upstate, Lake Placid, N.Y.), anti-LXRα rabbit antibody (1:500; Abcam, Cambridge, Mass.), anti-LXRβ mouse antibody (1:500; Abcam, Cambridge, Mass.).
β-actin and Lamin A were used as a gel loading control for cytosolic homogenates and nuclear homogenates respectively. The blots were developed with enhanced chemiluminescence (Immmun-star HRP chemiluminescent kit, Bio-Rad, Hercules, Calif.). Bands were visualized on a polyvinylidene difluoride membrane and analyzed by LabWorks 4.5 software on a UVP Bioimaging System (Upland, Calif.). Quantification of results was performed by densitometry and the results analyzed as total integrated densitometric values (arbitrary units).

ERα/β = assay: EMSA, binding of nuclear ER to probe for the ERE half site in the TH promoter; format: cell-based, human; details: nuclear extracts of treated SH-SY5Y, treatment alone vs control
ERα = target: T2, ERα (Homo sapiens, UniProt P03372); assay: ChIP, ERα binding to the ERE half site in the TH promoter; format: cell-based; details: SH-SY5Y, treatment alone vs control
T2 construct: endogenous in cells; host or cells: SH-SY5Y human neuroblastoma cells
T2 sequence (P03372 1-595): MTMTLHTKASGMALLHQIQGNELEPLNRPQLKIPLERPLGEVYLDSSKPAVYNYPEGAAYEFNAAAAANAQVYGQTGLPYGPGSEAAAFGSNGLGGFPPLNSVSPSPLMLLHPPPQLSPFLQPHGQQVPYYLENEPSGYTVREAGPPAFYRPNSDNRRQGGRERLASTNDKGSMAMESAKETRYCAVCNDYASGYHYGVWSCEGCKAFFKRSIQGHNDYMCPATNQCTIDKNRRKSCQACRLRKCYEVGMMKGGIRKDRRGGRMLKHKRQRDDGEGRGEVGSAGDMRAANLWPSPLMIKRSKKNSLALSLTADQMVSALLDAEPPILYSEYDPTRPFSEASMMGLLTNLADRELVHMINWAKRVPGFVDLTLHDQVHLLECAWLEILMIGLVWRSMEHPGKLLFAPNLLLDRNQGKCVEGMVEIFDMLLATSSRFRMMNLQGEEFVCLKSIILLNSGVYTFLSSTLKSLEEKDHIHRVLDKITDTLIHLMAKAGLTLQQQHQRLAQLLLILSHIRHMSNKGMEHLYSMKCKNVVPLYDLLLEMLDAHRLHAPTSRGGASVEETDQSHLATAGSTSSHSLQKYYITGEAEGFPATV
Description: as §1
(§2) ChIP analysis was performed to evaluate the extent of ERα/ERβ and LXRα/LXRβ binding to the DNA elements in the TH promoter and α-synuclein promoter regions respectively using “SimpleChIP™ Enzymatic Chromatic IP kit” from Cell Signaling (Boston, Mass.).
(§3) Briefly, cells from each treatment group (3×10^6 cells) were washed with PBS, trypsinized, centrifuged at 5000 g. The pellet containing the cells was further washed with PBS and cross-linked using 37% formaldehyde for 15 min followed by the addition of glycine solution to cease the cross-linking reaction.
(§4) The cells were washed with 4× volumes of 1×PBS and centrifuged at ˜220 g for 5 min. The pellet was resuspended and incubated for 10 min in 5 ml of tissue lysis buffer containing DTT and protease and phosphatase inhibitors. The subsequent steps to isolate the cross-linked chromatin were performed according to the manufacturer's protocol.
(§5) The cross-linked chromatin from each sample was apportioned into four equal parts.

ERβ [2] = target: T1, ERβ; assay: ChIP, ERβ binding to the ERE half site in the TH promoter; format: cell-based; details: SH-SY5Y, treatment alone vs control
Description: as §1, §2, §3, §4, §5

[3] = tested on: ERE-mediated transcription; assay: Dual-luciferase ERE reporter assay (ER-mediated transcription); format: cell-based, human; details: SH-SY5Y transfected with ERE-luciferase, 24 h
Description: Constructs encoding ERE and TH promoter conjugated to the firefly luciferase gene were used in the study. Human neuroblastoma SH-SY5Y cells were plated in 96-well plates at a density of 2×10^4 cells/well.
The cells were transfected when 80% confluent with 0.25 μg of either ERE-firefly Luciferase reporter construct, LXRE-firefly Luciferase reporter construct, or TH promotor-firefly Luciferase promoter construct. Respective non-inducible reporter constructs containing constitutively expressing Renilla luciferase were used as negative internal controls. Constitutively expressing GFP constructs were used as positive control to determine transfection efficiency.
Cells were incubated for 24 hours with Opti-MEM serum free medium (Invitrogen, Carlsbad, Calif.) containing the reporter constructs dissolved in transfection reagent. After 24 hours the medium was changed and the cells were incubated in normal DMEM/F12 medium containing 10% FBS and cells were treated with the different treatment regimens.
The cells were treated in triplicate and harvested 24 hours later and subjected to dual-luciferases assay. The dual-luciferase assay was performed using a “Dual-Luciferase Reporter Assay System” from Promega (Madison, Wis.). The luminescence recorded is expressed as Relative Luminescence Units (RLU) and normalized to per mg protein. […]

TNF-α = TNF-α levels in ARPE-19 cells; format: cell-based; details: ARPE-19, 24 h, 10 μM, alone vs control
ARPE-19 cells = format: cell-based
Description: ARPE-19 cells were treated with 0, 10 or 25 μM 27-OHC for 24 hours.

**Q.** For C[C@@H](CO)CCC[C@@H](C)[C@H]1CC[C@H]2[C@@H]3CC=C4C[C@@H](O)CC[C@]4(C)[C@H]3CC[C@]12C [27-OHC, 27-hydroxycholesterol], which “nuclear translocation / nuclear levels of ERβ” value (ERβ [1]) is on record?
**A.** The value was “decrease”.

**Q.** What about the “binding of nuclear ER to the DNA probe corresponding to the ERE-half site on the TH promoter” value (ERα/β) of the same compound?
**A.** The value was “lower binding”.

**Q.** What about the “ERα binding to the ERE on the TH promoter” value (ERα) of the same compound?
**A.** Its value is “no significant attenuation”.

**Q.** What about the “attenuation of ERβ binding to the ERE on the TH promoter” value (ERβ [2]) of the same compound?
**A.** Its value is 4 fold.

**Q.** What about the “decrease of ER-mediated transcription” value [3] of the same compound?
**A.** Its value is about 5 fold.

**Q.** What about the TNF-α levels (TNF-α) of the same compound?
**A.** The TNF-α levels was “increases”.

**Q.** What about the “toxicity to RPE cells” value (ARPE-19 cells) of the same compound?
**A.** The value was “toxic”.

**Q.** What about the Aβ peptide production (ARPE-19 cells; ARPE-19, 0, 10 or 25 μM, 24 hours) of the same compound?
**A.** The Aβ peptide production was “dose-dependently increased”.

**Q.** What about the “Ca^2+ homeostasis” value (ARPE-19 cells; ARPE-19, 10 or 25 μM, 24 hours) of the same compound?
**A.** Its value is “dyshomeostasis”.

**Q.** And the ROS generation (ARPE-19 cells; ARPE-19, 10 or 25 μM, 24 hours)?
**A.** The ROS generation was “ROS generation”.

**Q.** And the glutathione (ARPE-19 cells; ARPE-19, 10 or 25 μM, 24 hours)?
**A.** The glutathione was “glutathione depletion”.

**Q.** And the “levels of ER stress specific markers caspase 12 and gadd153” value (ARPE-19 cells; ARPE-19, 10 or 25 μM, 24 hours)?
**A.** Its value is “increased”.

**Q.** And the “levels of NFκB and heme-oxygenase 1 (HO-1)” value (ARPE-19 cells; ARPE-19, 10 or 25 μM, 24 hours)?
**A.** The value was “increased”.

**Q.** And the mitochondrial membrane potential (ARPE-19 cells; ARPE-19, 10 or 25 μM, 24 hours)?
**A.** The mitochondrial membrane potential was “reduced”.
